# Laboratory results taken from PubChem BioAssay (NCI).
#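 The compound was tested at five concentrations on cells cultured in 96-well plates, with a 48-hour exposure period. GI50 is the concentration that inhibits growth by half. At the TGI there is no net growth.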
# Columns and labels:
# Test in all cases: growth of human tumour cells (NCI), 48 h
# SK-OV-3 ovarian = system: SK-OV-3 ovarian
# CAKI-1 renal = system: CAKI-1 renal
# SF-268 CNS = system: SF-268 CNS
# HOP-92 NSCLC = system: HOP-92 NSCLC
# HL-60(TB) leukemia = system: HL-60(TB) leukemia
# MDA-MB-435 = system: MDA-MB-435
# HCT-15 colon = system: HCT-15 colon
# SW-620 colon = system: SW-620 colon
# SK-MEL-28 melanoma = system: SK-MEL-28 melanoma
# HOP-62 NSCLC = system: HOP-62 NSCLC
# U251 CNS = system: U251 CNS
# RXF 393 renal = system: RXF 393 renal
# EKVX NSCLC = system: EKVX NSCLC
# UO-31 renal = system: UO-31 renal
# HCT-116 colon = system: HCT-116 colon
# SK-MEL-5 melanoma = system: SK-MEL-5 melanoma
# SK-MEL-2 melanoma = system: SK-MEL-2 melanoma
# NCI-H23 lung = system: NCI-H23 lung
# CCRF-CEM leukemia = system: CCRF-CEM leukemia
# NCI/ADR-RES ovarian = system: NCI/ADR-RES ovarian
# MCF7 breast = system: MCF7 breast
# IGROV1 ovarian = system: IGROV1 ovarian
# SNB-75 CNS = system: SNB-75 CNS
# NCI-H522 lung = system: NCI-H522 lung
# NCI-H226 lung = system: NCI-H226 lung
# OVCAR-3 ovarian = system: OVCAR-3 ovarian
# M14 melanoma = system: M14 melanoma
# KM12 colon = system: KM12 colon
# SNB-19 CNS = system: SNB-19 CNS
# MALME-3M melanoma = system: MALME-3M melanoma
# OVCAR-8 ovarian = system: OVCAR-8 ovarian
# SF-295 CNS = system: SF-295 CNS
# A498 renal = system: A498 renal
# DU-145 prostate = system: DU-145 prostate
# K-562 leukemia = system: K-562 leukemia
# MOLT-4 leukemia = system: MOLT-4 leukemia
# PC-3 prostate = system: PC-3 prostate
# BT-549 breast = system: BT-549 breast
# LOX IMVI melanoma = system: LOX IMVI melanoma
# NCI-H460 lung = system: NCI-H460 lung
# A549 NSCLC = system: A549 NSCLC
# HCC-2998 colon = system: HCC-2998 colon
# OVCAR-5 ovarian = system: OVCAR-5 ovarian
# ACHN renal = system: ACHN renal
# T-47D breast = system: T-47D breast
# MDA-MB-231 breast = system: MDA-MB-231 breast
# RPMI-8226 leukemia = system: RPMI-8226 leukemia
# OVCAR-4 ovarian = system: OVCAR-4 ovarian
# SF-539 CNS = system: SF-539 CNS
# HT29 colon = system: HT29 colon
# UACC-62 melanoma = system: UACC-62 melanoma
# HS 578T breast = system: HS 578T breast
# TK-10 renal = system: TK-10 renal
# COLO 205 colon = system: COLO 205 colon
# 786-0 renal = system: 786-0 renal
# SN12C renal = system: SN12C renal
# UACC-257 melanoma = system: UACC-257 melanoma
# SR leukemia = system: SR leukemia
structure (smiles),measurement,setting,value
Nc1ccn(C2CC(O)C(CO)O2)c(=O)n1 (stereo unspecified),GI50,SK-OV-3 ovarian,> 5 mM
same,TGI,SK-OV-3 ovarian,> 5 mM
same,GI50,CAKI-1 renal,> 5 mM
same,TGI,CAKI-1 renal,> 5 mM
same,GI50,SF-268 CNS,> 5 mM
same,TGI,SF-268 CNS,> 5 mM
same,GI50,HOP-92 NSCLC,> 5 mM
same,TGI,HOP-92 NSCLC,> 5 mM
same,GI50,HL-60(TB) leukemia,> 5 mM
same,TGI,HL-60(TB) leukemia,> 5 mM
same,GI50,MDA-MB-435,> 5 mM
same,TGI,MDA-MB-435,> 5 mM
same,GI50,HCT-15 colon,> 5 mM
same,TGI,HCT-15 colon,> 5 mM
same,GI50,SW-620 colon,> 5 mM
same,TGI,SW-620 colon,> 5 mM
same,GI50,SK-MEL-28 melanoma,> 5 mM
same,TGI,SK-MEL-28 melanoma,> 5 mM
same,GI50,HOP-62 NSCLC,> 5 mM
same,TGI,HOP-62 NSCLC,> 5 mM
same,GI50,U251 CNS,> 5 mM
same,TGI,U251 CNS,> 5 mM
same,GI50,RXF 393 renal,> 5 mM
same,TGI,RXF 393 renal,> 5 mM
same,GI50,EKVX NSCLC,> 5 mM
same,TGI,EKVX NSCLC,> 5 mM
same,GI50,UO-31 renal,> 5 mM
same,TGI,UO-31 renal,> 5 mM
same,GI50,HCT-116 colon,> 5 mM
same,TGI,HCT-116 colon,> 5 mM
same,GI50,SK-MEL-5 melanoma,> 5 mM
same,TGI,SK-MEL-5 melanoma,> 5 mM
same,GI50,SK-MEL-2 melanoma,> 5 mM
same,TGI,SK-MEL-2 melanoma,> 5 mM
same,GI50,NCI-H23 lung,> 5 mM
same,TGI,NCI-H23 lung,> 5 mM
same,GI50,CCRF-CEM leukemia,> 5 mM
same,TGI,CCRF-CEM leukemia,> 5 mM
same,GI50,NCI/ADR-RES ovarian,> 5 mM
same,TGI,NCI/ADR-RES ovarian,> 5 mM
same,GI50,MCF7 breast,> 5 mM
same,TGI,MCF7 breast,> 5 mM
same,GI50,IGROV1 ovarian,> 5 mM
same,TGI,IGROV1 ovarian,> 5 mM
same,GI50,SNB-75 CNS,> 5 mM
same,TGI,SNB-75 CNS,> 5 mM
same,GI50,NCI-H522 lung,> 5 mM
same,TGI,NCI-H522 lung,> 5 mM
same,GI50,NCI-H226 lung,> 5 mM
same,TGI,NCI-H226 lung,> 5 mM
same,GI50,OVCAR-3 ovarian,> 5 mM
same,TGI,OVCAR-3 ovarian,> 5 mM
same,GI50,M14 melanoma,> 5 mM
same,TGI,M14 melanoma,> 5 mM
same,GI50,KM12 colon,> 5 mM
same,TGI,KM12 colon,> 5 mM
same,GI50,SNB-19 CNS,> 5 mM
same,TGI,SNB-19 CNS,> 5 mM
same,GI50,MALME-3M melanoma,> 5 mM
same,TGI,MALME-3M melanoma,> 5 mM
same,GI50,OVCAR-8 ovarian,> 5 mM
same,TGI,OVCAR-8 ovarian,> 5 mM
same,GI50,SF-295 CNS,> 5 mM
same,TGI,SF-295 CNS,> 5 mM
same,GI50,A498 renal,> 5 mM
same,TGI,A498 renal,> 5 mM
same,GI50,DU-145 prostate,> 5 mM
same,TGI,DU-145 prostate,> 5 mM
same,GI50,K-562 leukemia,> 5 mM
same,TGI,K-562 leukemia,> 5 mM
same,GI50,MOLT-4 leukemia,> 5 mM
same,TGI,MOLT-4 leukemia,> 5 mM
same,GI50,PC-3 prostate,> 5 mM
same,TGI,PC-3 prostate,> 5 mM
same,GI50,BT-549 breast,> 5 mM
same,TGI,BT-549 breast,> 5 mM
same,GI50,LOX IMVI melanoma,> 5 mM
same,TGI,LOX IMVI melanoma,> 5 mM
same,GI50,NCI-H460 lung,> 5 mM
same,TGI,NCI-H460 lung,> 5 mM
same,GI50,A549 NSCLC,> 5 mM
same,TGI,A549 NSCLC,> 5 mM
same,GI50,HCC-2998 colon,> 5 mM
same,TGI,HCC-2998 colon,> 5 mM
same,GI50,OVCAR-5 ovarian,> 5 mM
same,TGI,OVCAR-5 ovarian,> 5 mM
same,GI50,ACHN renal,> 5 mM
same,TGI,ACHN renal,> 5 mM
same,GI50,T-47D breast,> 5 mM
same,TGI,T-47D breast,> 5 mM
same,GI50,MDA-MB-231 breast,> 5 mM
same,TGI,MDA-MB-231 breast,> 5 mM
same,GI50,RPMI-8226 leukemia,> 5 mM
same,TGI,RPMI-8226 leukemia,> 5 mM
same,GI50,OVCAR-4 ovarian,> 5 mM
same,TGI,OVCAR-4 ovarian,> 5 mM
same,GI50,SF-539 CNS,> 5 mM
same,TGI,SF-539 CNS,> 5 mM
same,GI50,HT29 colon,> 5 mM
same,TGI,HT29 colon,> 5 mM
same,GI50,UACC-62 melanoma,> 5 mM
same,TGI,UACC-62 melanoma,> 5 mM
same,GI50,HS 578T breast,> 5 mM
same,TGI,HS 578T breast,> 5 mM
same,GI50,TK-10 renal,> 5 mM
same,TGI,TK-10 renal,> 5 mM
same,GI50,COLO 205 colon,> 5 mM
same,TGI,COLO 205 colon,> 5 mM
same,GI50,786-0 renal,> 5 mM
same,TGI,786-0 renal,> 5 mM
same,GI50,SN12C renal,> 5 mM
same,TGI,SN12C renal,> 5 mM
same,GI50,UACC-257 melanoma,> 5 mM
same,TGI,UACC-257 melanoma,> 5 mM
same,GI50,SR leukemia,> 5 mM
same,TGI,SR leukemia,> 5 mM
